This note sets out measurements from US7196110B2, “N-substituted tricyclic 3-aminopyrazoles as inhibitors for the treatment of cell proliferative disorders” (Janssen Phamaceutica N.V., priority 2002, dated 2007).

The target of this assay is T1, PDGF-receptor beta enzyme comprising the tyrosine kinase domain (Homo sapiens, UniProt P09619).
T1 construct: from amino acid 545 to 1106 of GenBank Access NO: AAA36427
As to the kind of experiment: Inhibition of PDGF-receptor kinase activity (cell-free, PLC1 peptide, 33P Flashplate). Particulars: for inhibition at 10 µM: compound at 10 uM, read-out: Percent Inhibition @ 10 uM. In kind it is biochemical. An outline of the steps:
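The IC50 is the inhibitor level halving kinase activity relative to inhibitor-free wells, measured as 33P captured on a streptavidin-bound biotin-PLC1 peptide. The reaction ran 60 min at 30 °C in pH 8 Tris buffer with 1 mM DTT, 5 μM ATP and the 545–1106 kinase-domain enzyme.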

[1] abbreviates: PDGF-R kinase activity, read-out: IC50.

Where two headings read alike, the source gives them in different places.

T1 sequence (P09619 545-1106): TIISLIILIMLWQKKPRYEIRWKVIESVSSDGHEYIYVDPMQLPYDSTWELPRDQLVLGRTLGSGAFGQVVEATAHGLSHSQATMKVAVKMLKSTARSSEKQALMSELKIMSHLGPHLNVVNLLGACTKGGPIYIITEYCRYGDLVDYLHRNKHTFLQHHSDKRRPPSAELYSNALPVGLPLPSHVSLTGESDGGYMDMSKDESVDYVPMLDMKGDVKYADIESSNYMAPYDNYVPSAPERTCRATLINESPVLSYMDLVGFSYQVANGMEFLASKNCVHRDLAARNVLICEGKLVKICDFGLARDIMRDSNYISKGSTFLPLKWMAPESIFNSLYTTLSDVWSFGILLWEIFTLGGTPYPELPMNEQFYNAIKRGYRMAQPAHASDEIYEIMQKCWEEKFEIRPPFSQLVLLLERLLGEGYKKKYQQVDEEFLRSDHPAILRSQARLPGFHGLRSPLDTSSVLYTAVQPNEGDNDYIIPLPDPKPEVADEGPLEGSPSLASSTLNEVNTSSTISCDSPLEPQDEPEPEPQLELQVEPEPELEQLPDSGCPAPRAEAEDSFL

Regarding `COc1cc2c(cc1OC)-c1n[nH]c(Nc3ccccc3C)c1C2` [Compound 31, (6,7-Dimethoxy-2,4-dihydro-indeno[1,2-c]pyrazol-3-yl)-o-tolyl-amine], under “PDGF-R kinase activity”, the inhibition at 10 µM came to 59%. Besides, the IC50 under setting [1] worked out at 0.115 µM.
On the same counts, the results for `COc1ccc(Nc2[nH]nc3c2Cc2c(OC)cccc2-3)c(OC)c1` [Compound 148, (2,4-Dimethoxy-phenyl)-(5-methoxy-2,4-dihydro-indeno[1,2-c]pyrazol-3-yl)-amine] are 57% and 8.6 µM.
The like results for `COc1cc2c(cc1OC)-c1n[nH]c(Nc3cccc(C(=O)N4CCN(C)CC4)c3)c1C2` [Compound 319, [3-(6,7-Dimethoxy-2,4-dihydro-indeno[1,2-c]pyrazol-3-ylamino)-phenyl]-(4-methyl-piperazin-1-yl)-methanone] were, in that order, 80.5% and 2.2 µM.
As for `COc1cc2c(cc1OC)-c1n[nH]c(Nc3cc(C(F)(F)F)cc(C(F)(F)F)c3)c1C2` [Compound 70, (3,5-Bis-trifluoromethyl-phenyl)-(6,7-dimethoxy-2,4-dihydro-indeno[1,2-c]pyrazol-3-yl)-amine], the inhibition at 10 µM (PDGF-R kinase activity) came to 41.5%. Also, the IC50 under setting [1] amounted to 16.8 µM.
The like results for `COc1cc2c(cc1OC)-c1n[nH]c(Nc3ccc(N4CCN(C)CC4)cc3)c1C2` [Compound 51, (6,7-Dimethoxy-2,4-dihydro-indeno[1,2-c]pyrazol-3-yl)-[4-(4-methyl-piperazin-1-yl)-phenyl]-amine] were, in that order, 30% and 26.7 µM.
In the case of `COc1cc2c(cc1OC)-c1n[nH]c(Nc3cccc(F)c3Br)c1C2` [Compound 410, (2-Bromo-3-fluoro-phenyl)-(6,7-dimethoxy-2,4-dihydro-indeno[1,2-c]pyrazol-3-yl)-amine], the inhibition at 10 µM (PDGF-R kinase activity) came to 83.5%. Further, under setting [1], the IC50 is 1.08 µM.
As to `CCOc1cc2c(cc1OCC)-c1n[nH]c(Nc3cccc(OC)c3)c1C2` [Compound 245, (6,7-Diethoxy-2,4-dihydro-indeno[1,2-c]pyrazol-3-yl)-(3-methoxy-phenyl)-amine], the inhibition at 10 µM (PDGF-R kinase activity) came to 87%. Further, the IC50 under setting [1] came out at 0.001 µM.
For `COc1cc2c(cc1OC)-c1n[nH]c(Nc3c(OC)ccnc3OC)c1C2` [Compound 454, (6,7-Dimethoxy-2,4-dihydro-indeno[1,2-c]pyrazol-3-yl)-(2,4-dimethoxy-pyridin-3-yl)-amine], the inhibition at 10 µM (PDGF-R kinase activity) was 99%. The IC50 under setting [1] is 0.258 µM.
Turning to `COc1cc2c(cc1OC)-c1n[nH]c(NCc3cccc(C)c3)c1C2` [Compound 272, (6,7-Dimethoxy-2,4-dihydro-indeno[1,2-c]pyrazol-3-yl)-(3-methyl-benzyl)-amine], the inhibition at 10 µM (PDGF-R kinase activity) was 61%. In addition, the IC50 under setting [1] worked out at 0.389 µM.
For the compound `Cc1cccc(Nc2[nH]nc3c2Cc2cc(Cl)ccc2-3)c1` [Compound 197, (6-Chloro-2,4-dihydro-indeno[1,2-c]pyrazol-3-yl)-m-tolyl-amine], the inhibition at 10 µM (PDGF-R kinase activity) was 8%.
For the compound `Fc1ccc(F)c(Nc2[nH]nc3c2Cc2cc(Cl)ccc2-3)c1` [Compound 192, (6-Chloro-2,4-dihydro-indeno[1,2-c]pyrazol-3-yl)-(2,5-difluoro-phenyl)-amine], for the setting “PDGF-R kinase activity”, the inhibition at 10 µM worked out at 67%. Under setting [1], the IC50 came to 0.103 µM.
With `COc1cc2c(cc1OC)-c1n[nH]c(Nc3cc(C)cc(C)n3)c1C2` [Compound 588, (6,7-Dimethoxy-2,4-dihydro-indeno[1,2-c]pyrazol-3-yl)-(4,6-dimethyl-pyridin-2-yl)-amine], the inhibition at 10 µM (PDGF-R kinase activity) was determined as 103%. Moreover, the IC50 (read-out: IC50 (μM) on PDGF-R kinase activity) was 0.556 µM.
`CN(C)CCCOc1ccc2c(c1)Cc1c-2n[nH]c1Nc1cccnc1` [Compound 161, [6-(3-Dimethylamino-propoxy)-2,4-dihydro-indeno[1,2-c]pyrazol-3-yl]-pyridin-3-yl-amine]: the inhibition at 10 µM (PDGF-R kinase activity) is 84%. For the same compound, under setting [1], the IC50 worked out at 0.382 µM.
Consider `COc1ccc2c(c1)Cc1c-2n[nH]c1Nc1cccc(Br)c1` [Compound 83, (3-Bromo-phenyl)-(6-methoxy-2,4-dihydro-indeno[1,2-c]pyrazol-3-yl)-amine], for which, for the setting “PDGF-R kinase activity”, the inhibition at 10 µM was found to be 93%. Besides, under setting [1], the IC50 was 0.0719 µM.
`COc1cc2c(cc1OC)-c1c(c(Nc3cccc(F)c3)nn1C(=O)NCCNC(C)=O)C2` [Compound 526, 3-(3-Fluoro-phenylamino)-6,7-dimethoxy-4H-indeno[1,2-c]pyrazole-1-carboxylic acid (2-acetylamino-ethyl)-amide]: the inhibition at 10 µM (PDGF-R kinase activity) turned out to be 73%. Further, the IC50 under setting [1] was 8.09 µM.
For `CCOc1cccc(Nc2[nH]nc3c2Cc2cc(OCC)c(OCC)cc2-3)c1` [Compound 375, (6,7-Diethoxy-2,4-dihydro-indeno[1,2-c]pyrazol-3-yl)-(3-ethoxy-phenyl)-amine], under “PDGF-R kinase activity”, the inhibition at 10 µM is 96.5%. Besides, the IC50 under setting [1] was found to be 0.103 µM.
The like results for `COc1cc2c(cc1OC)-c1n[nH]c(NCc3cc(-c4ccccc4)on3)c1C2` [Compound 455, (6,7-Dimethoxy-2,4-dihydro-indeno[1,2-c]pyrazol-3-yl)-(5-phenyl-isoxazol-3-ylmethyl)-amine] were, in that order, 95% and 0.153 µM.
`Fc1cccc(Nc2n[nH]c3c2Cc2sccc2-3)c1` [Compound 335, (5,7-Dihydro-1-thia-4,5-diaza-cyclopenta[a]pentalen-6-yl)-(3-fluoro-phenyl)-amine]: the inhibition at 10 µM (PDGF-R kinase activity) worked out at 100%. Under setting [1], the IC50 turned out to be 0.129 µM.
Turning to `COc1cc2c(cc1OC)-c1n[nH]c(Nc3ccc(F)c(C(F)(F)F)c3)c1C2` [Compound 212, (6,7-Dimethoxy-2,4-dihydro-indeno[1,2-c]pyrazol-3-yl)-(4-fluoro-3-trifluoromethyl-phenyl)-amine], the inhibition at 10 µM (PDGF-R kinase activity) was 84%. Moreover, the IC50 under setting [1] amounted to 0.775 µM.
Consider `CN(C)c1ccc(Nc2[nH]nc3c2Cc2cc(Cl)ccc2-3)cc1` [Compound 196, N-(6-Chloro-2,4-dihydro-indeno[1,2-c]pyrazol-3-yl)-N′,N′-dimethyl-benzene-1,4-diamine], for which, where the note is “PDGF-R kinase activity”, the inhibition at 10 µM worked out at 70%. Under setting [1], the IC50 stood at 1.29 µM.
Consider `COc1cc2c(cc1OC)-c1n[nH]c(Nc3ccc(Br)cc3)c1C2` [Compound 45, (4-Bromo-phenyl)-(6,7-dimethoxy-2,4-dihydro-indeno[1,2-c]pyrazol-3-yl)-amine], for which the inhibition at 10 µM (PDGF-R kinase activity) was found to be 86%. In addition, under setting [1], the IC50 is 2.16 µM.
`COC(=O)c1cccc(Nc2[nH]nc3c2Cc2c(OCCCN(C)C)cccc2-3)c1` [Compound 77, 3-[5-(3-Dimethylamino-propoxy)-2,4-dihydro-indeno[1,2-c]pyrazol-3-ylamino]-benzoic acid methyl ester]: the inhibition at 10 µM (PDGF-R kinase activity) came to 108%. The IC50 under setting [1] came to 0.217 µM.
`Cc1ccccc1CNc1[nH]nc2c1Cc1c(OCCCO)cccc1-2` [Compound 445, 3-[3-(2-Methyl-benzylamino)-2,4-dihydro-indeno[1,2-c]pyrazol-5-yloxy]-propan-1-ol]: the inhibition at 10 µM (PDGF-R kinase activity) stood at 95%. For the same compound, the IC50 under setting [1] was determined as 0.0253 µM.
On to `COc1cc2c(cc1OC)-c1c(c(Nc3cccc(F)c3)nn1C(=O)NCCOCCOCCO)C2` [Compound 544, 3-(3-Fluoro-phenylamino)-6,7-dimethoxy-4H-indeno[1,2-c]pyrazole-1-carboxylic acid {2-[2-(2-hydroxy-ethoxy)-ethoxy]-ethyl}-amide], for which the inhibition at 10 µM (PDGF-R kinase activity) is 60%.
As for `COc1cc2c(cc1OC)-c1nn(C(=O)Oc3ccc(F)cc3)c(Nc3cccc(F)c3)c1C2` [Compound 503, 3-(3-Fluoro-phenylamino)-6,7-dimethoxy-4H-indeno[1,2-c]pyrazole-2-carboxylic acid 4-fluoro-phenyl ester], under “PDGF-R kinase activity”, the inhibition at 10 µM was 103%. For the same compound, the IC50 under setting [1] was found to be 0.0451 µM.
On the same counts, the results for `COC(=O)c1cccc(Nc2[nH]nc3c2Cc2cc(N)ccc2-3)c1` [Compound 120, 3-(6-Amino-2,4-dihydro-indeno[1,2-c]pyrazol-3-ylamino)-benzoic acid methyl ester] are 87% and 0.308 µM.
Consider `COc1cc2c(cc1OC)C(C)c1c-2n[nH]c1Nc1cccc(Cl)c1` (stereo not drawn) [Compound 257, (3-Chloro-phenyl)-(6,7-dimethoxy-4-methyl-2,4-dihydro-indeno[1,2-c]pyrazol-3-yl)-amine], for which the inhibition at 10 µM (PDGF-R kinase activity) was determined as 35%.
In the case of `COc1cc2c(cc1OC)-c1c(c(Nc3cccc(F)c3)nn1C(=O)c1ccccc1)C2` [Compound 427, [3-(3-Fluoro-phenylamino)-6,7-dimethoxy-4H-indeno[1,2-c]pyrazol-1-yl]-phenyl-methanone], the inhibition at 10 µM (PDGF-R kinase activity) came to 80%. Also, the IC50 under setting [1] stood at 1.15 µM.
With `COc1ccc2c(c1)Cc1c-2n[nH]c1Nc1ccc(C(F)(F)F)cc1` [Compound 89, (6-Methoxy-2,4-dihydro-indeno[1,2-c]pyrazol-3-yl)-(4-trifluoromethyl-phenyl)-amine], the inhibition at 10 µM (PDGF-R kinase activity) turned out to be 88%. Further, the IC50 under setting [1] is 0.886 µM.
Turning to `Fc1cccc(Nc2[nH]nc3c2Cc2cc(Br)ccc2-3)c1` [Compound 151, (6-Bromo-2,4-dihydro-indeno[1,2-c]pyrazol-3-yl)-(3-fluoro-phenyl)-amine], where the note is “PDGF-R kinase activity”, the inhibition at 10 µM was 79%. Also, the IC50 under setting [1] is 0.0918 µM.
Consider `Fc1ccc2c(c1)Cc1c-2n[nH]c1NCc1cc(Cl)cc(Cl)c1` [Compound 304, (3,5-Dichloro-benzyl)-(6-fluoro-2,4-dihydro-indeno[1,2-c]pyrazol-3-yl)-amine], for which the inhibition at 10 µM (PDGF-R kinase activity) was determined as 38%. For the same compound, under setting [1], the IC50 came out at 3.46 µM.
On to `COc1ccccc1CNc1[nH]nc2c1Cc1cc(OC)c(OC)cc1-2` [Compound 224, (6,7-Dimethoxy-2,4-dihydro-indeno[1,2-c]pyrazol-3-yl)-(2-methoxy-benzyl)-amine], for which, where the note is “PDGF-R kinase activity”, the inhibition at 10 µM was 24%.
